Values of other authors in patent US6509447B1, “G protein chimeras and methods of screening compounds” (Glaxo Welcome Inc., priority 1997, dated 2003).

Biological target: T1, Ste2p (Saccharomyces cerevisiae, UniProt D6VTK4)
T1 sequence (D6VTK4 1-431): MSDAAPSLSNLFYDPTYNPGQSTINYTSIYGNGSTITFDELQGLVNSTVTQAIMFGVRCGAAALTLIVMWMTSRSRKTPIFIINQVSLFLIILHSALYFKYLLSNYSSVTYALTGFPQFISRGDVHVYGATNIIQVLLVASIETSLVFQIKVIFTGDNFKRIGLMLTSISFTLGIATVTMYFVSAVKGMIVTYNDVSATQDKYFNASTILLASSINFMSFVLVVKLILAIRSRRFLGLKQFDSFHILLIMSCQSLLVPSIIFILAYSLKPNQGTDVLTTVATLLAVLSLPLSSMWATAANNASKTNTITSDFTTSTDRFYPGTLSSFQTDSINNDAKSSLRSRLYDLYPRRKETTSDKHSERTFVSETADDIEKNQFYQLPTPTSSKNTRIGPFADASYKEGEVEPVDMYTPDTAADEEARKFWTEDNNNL
Conditions: literature reference (3); read-out: reported affinity of Ste2p for α-factor peptide (Kd); cited from earlier work

In the case of α-factor, the Kd is given as 17 nM.
